# Measurements from patent publication US4698352A, “4-oxo-1,4-dihydronicotinic acid derivatives, salts thereof, and antibacterial agents containing the same” (Toyama Chemical Co., Ltd., priority 1982, dated 1987).
# Where two headings read alike, the source gives them in different places.
# Key:
# Test in all cases: Antibacterial activity (MIC), agar dilution
# Format in all cases: cell-based
# E. coli GN5482** = details: Escherichia coli, 20 h; E. coli GN5482, cephalospolinase-producing; 10^6 cells per ml; read-out: MIC
# Excerpt: (§1) The amount of bacteria inoculated was 10^4 cells per plate (10^6 cells per ml).
# (§2) ** Cephalospolinase-producing bacteria
# Pro. vulgaris GN76** = details: Proteus vulgaris
# Excerpt: as §1, §2
# Ps. aeruginosa GN918** = details: Pseudomonas aeruginosa, Ps. aeruginosa GN918, cephalospolinase-producing, 10^6 cells per ml
# Excerpt: as §1, §2
# St. aureus FDA209P = details: Staphylococcus aureus, FDA209P, 20 h
# Excerpt: as §1
# Pro. morganii T-216 = details: Morganella morganii, 37° C.
# Excerpt: as §1
# Kl. pneumoniae Y-50 = details: Klebsiella pneumoniae, Y50, 20 h, 10^6 cells per ml, 37° C., read-out: MIC
# Excerpt: as §1
# Aci. antitratus A-6 = details: 20 h
# Excerpt: as §1
# E. coli NIHJ JC-2 = details: Escherichia coli, NIHJJC2, 20 h
# Excerpt: as §1
# Kl. pneumoniae Y-41 = details: Klebsiella pneumoniae, Y41, 10^6 cells per ml, 37° C., 20 hours, read-out: MIC
# Excerpt: as §1
# Pro. mirabilis T-111 = details: Proteus mirabilis, 37° C.
# Excerpt: as §1
# Ps. aeruginosa S-68 = details: Pseudomonas aeruginosa
# Excerpt: as §1
# Ent. cloacae IID977 = details: Enterobacter cloacae, IID977, 20 h
# Excerpt: as §1
# E. coli TK-111 = details: Escherichia coli, TK111, 20 h, E. coli TK-111; 10^6 cells per ml; 37° C., 20 hours; read-out: MIC
# Excerpt: as §1
# Pro. vulgaris GN3027 = details: Proteus vulgaris, GN3027, 20 h, Pro. vulgaris GN3027; 10^6 cells per ml; 37° C., 20 hours; read-out: MIC
# Excerpt: as §1
# Ps. aeruginosa IFO3445 = details: Pseudomonas aeruginosa
# Excerpt: as §1
# St. aureus F-137* = details: Staphylococcus aureus, 20 h
# Excerpt: as §1
# (§3) * Penicillinase-producing bacteria
# Kl. pneumoniae Y-4* = details: Klebsiella pneumoniae, 20 h, Kl. pneumoniae Y-4, penicillinase-producing; 10^6 cells per ml; read-out: MIC
# Excerpt: as §1, §3
# E. coli TK-3* = details: Escherichia coli, 20 h
# Excerpt: as §1, §3
# Ps. aeruginosa GN3379* = details: Pseudomonas aeruginosa, Ps. aeruginosa GN3379, penicillinase-producing, 10^6 cells per ml
# Excerpt: as §1, §3
# [1] = 20 h, Pro. vulgaris GN76, cephalospolinase-producing, 10^6 cells per ml, read-out: MIC
# [2] = St. aureus FDA209P, 10^6 cells per ml, 37° C., 20 hours, read-out: MIC
# [3] = Aci. antitratus A-6, 10^6 cells per ml, 37° C., 20 hours, read-out: MIC
# [4] = E. coli NIHJ JC-2, 10^6 cells per ml, 37° C., 20 hours, read-out: MIC
# [5] = Ent. cloacae IID977, 10^6 cells per ml, 37° C., 20 hours, read-out: MIC
# [6] = Ps. aeruginosa IFO3445, 10^6 cells per ml, 37° C., 20 hours, read-out: MIC
# [7] = St. aureus F-137, penicillinase-producing, 10^6 cells per ml, read-out: MIC
# [8] = E. coli TK-3, penicillinase-producing, 10^6 cells per ml, read-out: MIC
# [9] = S68, Ps. aeruginosa S-68, 10^6 cells per ml, 37° C., 20 hours, read-out: MIC
# [10] = T216, 10^6 cells per ml, 20 hours, read-out: MIC
Compound,MIC (E. coli GN5482**) [µg/mL],MIC (Pro. vulgaris GN76**; [1]) [µg/mL],"MIC (Ps. aeruginosa GN918**; GN918, 20 h) [µg/mL]",MIC (St. aureus FDA209P; [2]) [µg/mL],"MIC (Pro. morganii T-216; T216, 20 h, 10^6 cells per ml) [µg/mL]",MIC (Kl. pneumoniae Y-50) [µg/mL],MIC (Aci. antitratus A-6; [3]) [µg/mL],MIC (E. coli NIHJ JC-2; [4]) [µg/mL],MIC (Kl. pneumoniae Y-41) [µg/mL],"MIC (Pro. mirabilis T-111; T111, 20 h, 10^6 cells per ml) [µg/mL]",MIC (Ent. cloacae IID977; [5]) [µg/mL],MIC (E. coli TK-111) [µg/mL],MIC (Pro. vulgaris GN3027) [µg/mL],MIC (Ps. aeruginosa IFO3445; [6]) [µg/mL],MIC (St. aureus F-137*; [7]) [µg/mL],MIC (Kl. pneumoniae Y-4*) [µg/mL],MIC (E. coli TK-3*; [8]) [µg/mL],MIC (Ps. aeruginosa S-68; [9]) [µg/mL],"MIC (Ps. aeruginosa GN3379*; 20 h, read-out: MIC) [µg/mL]","MIC (Ps. aeruginosa GN918**; 20 h, read-out: MIC) [µg/mL]",further results
O=C(O)c1cn(-c2ccc(O)cc2)c(-c2ccc(N3CCCC3)cc2)cc1=O,≤ 0.05,0.78,1.56,0.2,1.56,0.78,≤ 0.05,0.39,1.56,1.56,0.78,0.2,0.2,6.25,0.1,3.13,0.78,,,,"MIC (Ps. aeruginosa S-68; S68, 20 h): 3.13 µg/mL; MIC (Ps. aeruginosa GN3379*; GN3379, 20 h): 3.13 µg/mL"
Cc1nc(-c2ccc(-c3cc(=O)c(C(=O)O)cn3-c3ccc(F)cc3)cc2)cs1,0.78,,3.13,0.2,3.13,3.13,0.1,1.56,6.25,6.25,,0.39,1.56,25,0.2,25,,12.5,25,,"MIC (Pro. vulgaris GN76**; GN76, 20 h): 3.13 µg/mL; MIC (Ent. cloacae IID977): 6.25 µg/mL; MIC (E. coli TK-3*): 3.13 µg/mL"
Cc1nc(-c2ccc(-c3cc(=O)c(C(=O)O)cn3-c3ccc(O)cc3C)cc2)co1,≤ 0.05,0.78,,0.1,3.13,0.2,0.39,0.1,1.56,1.56,0.39,≤ 0.05,0.39,,0.1,3.13,0.2,,6.25,0.78,"MIC (Ps. aeruginosa S-68; S68, 20 h): 3.13 µg/mL; MIC (Ps. aeruginosa IFO3445; IFO3445, 20 h): 3.13 µg/mL"
O=C(O)c1cn(-c2ccc(O)cc2)c(-c2ccc3sccc3c2)cc1=O,≤ 0.05,0.2,,,,0.2,0.1,0.2,0.78,,0.78,≤ 0.05,≤ 0.05,1.56,0.39,0.78,0.39,3.13,1.56,0.39,"MIC (Pro. morganii T-216; [10]): 0.39 µg/mL; MIC (Pro. mirabilis T-111; T111, 10^6 cells per ml, 20 hours, read-out: MIC): 0.78 µg/mL"
Nc1ccc(-c2cc(=O)c(C(=O)O)cn2-c2ccc(F)cc2)cc1,0.2,0.78,3.13,,,0.39,,0.78,3.13,6.25,1.56,0.39,0.2,6.15,,6.25,0.78,12.5,25,,MIC (St. aureus FDA209P): 3.13 µg/mL; MIC (Pro. morganii T-216; [10]): 1.56 µg/mL; MIC (Aci. antitratus A-6): 3.13 µg/mL; MIC (St. aureus F-137*): 3.13 µg/mL
O=C(O)c1cn(-c2ccc(F)cc2)c(-c2ccc(Cl)cc2)cc1=O,0.39,,,6.25,,3.13,,,12.5,12.5,6.25,1.56,0.39,> 100,6.25,25,6.25,50,50,100,"MIC (Pro. vulgaris GN76**; GN76, 20 h): 3.13 µg/mL; MIC (Pro. morganii T-216; [10]): 6.25 µg/mL; MIC (Aci. antitratus A-6): 3.13 µg/mL; MIC (E. coli NIHJ JC-2): 3.13 µg/mL"
